{"source": "paper PMC7822819", "about": "“Discovery of a new class of integrin antibodies for fibrosis” (Scientific Reports, 2021)", "key": {"[1]": {"test_system": "osteoporosis patients", "set-up": "method as in PMID 15687321, PMID 20398037", "conditions": "52 weeks; cited from earlier work"}, "[2]": {"target": "mouse αvβ1 (Mus musculus, UniProt P09055+P43406)", "sequence (P43406 31-988)": "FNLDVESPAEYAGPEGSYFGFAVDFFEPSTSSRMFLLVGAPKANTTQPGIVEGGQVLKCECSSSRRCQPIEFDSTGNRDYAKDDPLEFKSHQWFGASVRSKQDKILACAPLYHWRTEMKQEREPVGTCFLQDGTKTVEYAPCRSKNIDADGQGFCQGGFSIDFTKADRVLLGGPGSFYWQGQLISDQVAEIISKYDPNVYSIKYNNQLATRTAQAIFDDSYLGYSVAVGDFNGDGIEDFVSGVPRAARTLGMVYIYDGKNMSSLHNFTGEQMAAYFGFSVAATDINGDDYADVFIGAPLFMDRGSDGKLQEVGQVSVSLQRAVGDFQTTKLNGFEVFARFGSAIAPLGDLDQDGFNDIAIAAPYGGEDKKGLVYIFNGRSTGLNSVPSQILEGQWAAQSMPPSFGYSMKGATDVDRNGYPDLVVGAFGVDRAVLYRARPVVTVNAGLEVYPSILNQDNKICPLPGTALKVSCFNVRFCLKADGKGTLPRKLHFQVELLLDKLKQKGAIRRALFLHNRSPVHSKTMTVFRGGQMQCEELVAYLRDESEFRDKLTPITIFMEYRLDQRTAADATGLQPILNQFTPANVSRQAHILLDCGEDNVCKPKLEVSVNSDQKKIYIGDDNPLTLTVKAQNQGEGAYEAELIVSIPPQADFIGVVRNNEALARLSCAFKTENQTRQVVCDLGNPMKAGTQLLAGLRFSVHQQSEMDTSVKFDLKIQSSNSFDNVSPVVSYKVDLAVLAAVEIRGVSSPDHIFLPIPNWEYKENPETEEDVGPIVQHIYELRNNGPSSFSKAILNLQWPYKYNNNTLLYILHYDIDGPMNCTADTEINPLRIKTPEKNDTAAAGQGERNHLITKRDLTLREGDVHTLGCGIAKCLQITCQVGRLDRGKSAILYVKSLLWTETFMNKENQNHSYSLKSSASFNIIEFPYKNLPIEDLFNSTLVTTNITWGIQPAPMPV", "sequence (P09055 21-728)": "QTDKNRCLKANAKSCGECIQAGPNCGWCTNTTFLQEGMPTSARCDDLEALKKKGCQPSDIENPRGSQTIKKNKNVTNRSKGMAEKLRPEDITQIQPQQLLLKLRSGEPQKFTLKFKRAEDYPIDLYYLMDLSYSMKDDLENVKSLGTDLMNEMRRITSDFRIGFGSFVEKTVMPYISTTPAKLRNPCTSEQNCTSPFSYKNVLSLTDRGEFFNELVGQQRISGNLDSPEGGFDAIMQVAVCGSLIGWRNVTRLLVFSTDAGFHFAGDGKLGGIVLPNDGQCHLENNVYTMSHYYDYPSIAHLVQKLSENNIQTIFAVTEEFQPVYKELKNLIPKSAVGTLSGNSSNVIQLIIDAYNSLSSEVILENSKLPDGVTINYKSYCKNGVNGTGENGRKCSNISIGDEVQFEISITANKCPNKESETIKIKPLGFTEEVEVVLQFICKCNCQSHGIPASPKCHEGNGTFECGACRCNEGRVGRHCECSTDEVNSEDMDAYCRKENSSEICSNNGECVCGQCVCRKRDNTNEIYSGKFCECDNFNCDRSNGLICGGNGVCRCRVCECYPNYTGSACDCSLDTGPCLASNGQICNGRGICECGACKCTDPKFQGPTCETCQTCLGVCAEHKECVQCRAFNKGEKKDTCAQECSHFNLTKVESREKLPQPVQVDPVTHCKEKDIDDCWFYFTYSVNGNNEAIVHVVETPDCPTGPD", "assay": "AlphaLISA integrin-ligand binding assay", "format": "biochemical", "set-up": "mαV 1 988; m β1 1 728; made in house; host or cells: Expi293", "conditions": "Fig. 4B; read-out: IC50 Mouse integrin AlphaLISA assays: mαvβ1", "experimental": "In the AlphaLISA integrin assays, we used a HEPES based buffer (25 mM HEPES pH 7.4, 137 mM NaCl, 1 mM MgCl2, 1 mM MnCl2, 2 mM CaCl2, 2.7 mM KCl, and 0.05% Tween-20). Optimal assay conditions were determined with a titration of the reagents for signal noise ratio (S/N), linear range, etc. For the respective integrins, we used the final concentrations described in Supplemental Table S3. Briefly, the testing antibody (8 μL) was added as a 4x (of Final testing concentration) solution in the HEPES buffer described previously into a 384w AlphaPlate (Perkin Elmer #6005350). Then the integrin and ligand were added sequentially as 8x (4 μL each). Plates were sealed and incubated at room temperature for 2 h. Then 4 × acceptor bead solution (8 μL) was added, and the plates were resealed and incubated at RT for 1 h. Finally, 4 × (8 μL) donor beads solution was added in a darkened room and incubated for 45 min at room temperature. Plates were read on the Envision (Perkin Elmer) in AlphaScreen mode within 3 h of donor bead addition.\nSupplemental Table S3. integrin AlphaLIS A assay reagents and conditions Human A l phal i sa Inte gri n A ssays: Fi nal Condi ti ons […]\n( batch de pe nde nt) anti body A l phaLi sa A cce ptor havb1 1. 4 nM 1. 0 nMα - Fi brone cti n human Fi brone cti n n/a A cce ptor be ads/ Pe rki n 10. 0 ug/ m 10. 0 ug/ m […]\nhavb3 3. 0 nM 10. […]"}, "[3]": {"test_system": "bleomycin-induced lung fibrosis", "assay": "Bleomycin-induced lung fibrosis mouse model", "format": "in vivo", "conditions": "BLM mice, Nintedanib 60 mpk po qd", "experimental": "Adult male C57BL/6 mice (Taconic, Rensselaer, NY) were housed in a temperature and humidity-controlled facility with a 12 h light: 12-h dark cycle. Animals had ad libitum access to food (Purina Rodent Chow 5053, LabDiet, St. Louis, MO) and water. All procedures utilizing experimental animals were conducted in accordance with the Guide for the Care and Use of Laboratory Animals, and experimental procedures were reviewed and approved by the Institutional Animal Care and Use Committee at MRL, Kenilworth, NJ. For osmotic minipump implantation, TFA salt of MK-0429 was formulated in 50% DMSO/50% H2O at a concentration of 416 mg/mL. MK-0429 or vehicle solution were filled in minipumps (Alzet, # 1007D, flow rate 0.5 μL/h). Minipumps were placed in mice subcutaneously in a pocket on the back between the shoulder blades. A small incision was made and a subcutaneous pocket formed by blunt dissection. A sterile minipump was inserted into the subcutaneous pocket. The incision was closed with staples or non-absorbable suture or absorbable (subcuticular) suture. The minipumps were used for continuous drug delivery for 2 weeks. Mice at 12 ~ 13 weeks of age were randomized to 5 groups: saline, bleomycin instillation with vehicle (osmotic minipump), bleomycin instillation with MK-0429 treatment, bleomycin instillation with vehicle oral treatment, and bleomycin instillation with Nintedanib treatment. All mice were anaesthetized with isoflurane. Bleomycin was dosed by intra-tracheal (i.t) instillation in a volume of 50 µl, at a dose of 1unit /kg body weight. After instillation, mice were kept in a heads-up position for 2–5 min before putting into cages. MK-0429 (200 mg/kg) was administered by Osmotic pump from day 5 to day 14 and Nintedanib (60 mg/kg) was administered, p.o., q.d., for 14 days. Vehicle was dosed orally at 10 am daily from the day 5 to the end of the studies and dosing volume was 10 mL/kg. For plasma PK analysis, an aliquot of 50 μL plasma was spiked into a 96-well plate, and 200 μL of acetonitrile containing internal standard were added for protein precipitation. The mixture was vortexed, centrifuged at 4000 rpm for 20 min. 50 μL of supernatant were mixed with 200 μl H2O and the final solution were injected for LC–MS/MS analysis. The methods for quantitative analysis were developed on UPLC (Waters) chromatographic system equipped with an API4000 QTrap mass spectrometer (Applied Biosystems, Concord, Ontario, Canada). Analyst 1.5 software packages (Applied Biosystems) were used to control the LC–MS/MS system and data acquisition and processing. Upon completion of the study, animals were euthanized and tissues were collected for histological assessment. Lung tissues were perfused with 10% formalin, fixed for 24 h, and then paraffin embedded. Tissue sections were stained with hematoxylin & eosin (H&E) and Masson’s trichrome, subsequently evaluated under light microscope. The severity of histopathologic changes and fibrosis in the lung were graded as described previously by pathologists[51],[52]. Following deparaffinization and rehydration, each lung tissue section was processed to identify αSMA deposition by immunohistochemistry. The primary antibodies used were αSMA antibody from Sigma. The Aperio ScanScope XT Slide Scanner (Aperio Technologies) system was used to capture whole slide digital images with a 20 × objective. Digital images were managed using Aperio Spectrum. The positive stains were identified and quantified using a macro created from a color deconvolution algorithm (Aperio Technologies). Statistical analysis was performed by using One-way ANOVA followed by Tukey’s test."}, "[4]": {"test_system": "diabetic nephropathy model", "set-up": "method as in PMID 28971604", "conditions": "cited from earlier work"}, "[5]": {"conditions": "treatment from day 5 for 14 days, MK-0429 200 mpk osmotic minipump, vs BLM-vehicle"}}}
{"smiles": "COc1ccc(C(CC(=O)O)N2CCN(CCCc3ccc4c(n3)NCCC4)C2=O)cn1", "note": "(stereo not drawn) [MK-0429]", "values": [{"measurement": "Safety profile", "setting": "[1]", "result": "relatively well-tolerated"}, {"measurement": "IC50", "setting": "[2]", "result": 1.3, "unit": "nM"}, {"measurement": "TIMP-1 content in BALF", "setting": "[3]; 14 days treatment, MK-0429 200 mpk minipump", "result": "did not reach statistical significance"}, {"measurement": "Modified Ashcroft score of mouse lung", "setting": "[3]; [5]", "result": "significantly decreased"}, {"measurement": "Total inflammation area in mouse lungs", "setting": "[3]; [5]", "result": "nonstatistical significant decrease"}, {"measurement": "αSMA immunohistochemistry in lung", "setting": "[3]; [5]", "result": "significantly decreased"}, {"measurement": "Body weight vs bleomycin group", "setting": "[3]; MK-0429 200 mpk minipump", "result": "no significant body weight difference"}, {"measurement": "Proteinuria", "setting": "[4]", "result": "reduces"}, {"measurement": "Renal fibrosis", "setting": "[4]", "result": "reduces"}]}
